Data published in patent US20170209413A1, “USE OF ASPARAGUSIC ACID AND DERIVATIVES THEREOF TO TREAT SYMPTOMS AND DISORDERS OF NEUROLOGICAL DISEASE” (priority 2016, published 2017).

Key:
[1] = tested on: shaking from Parkinson disease; assay: hand writing skill test for relief of the shaking from Parkinson disease in one patient; format: in vivo, human
Description: A patient diagnosed with Parkinson's disease and in need of treatment by the methods disclosed herein was administered compositions comprising the compounds disclosed herein. The patient had been diagnosis with Parkinson's disease by two medical doctors, the family doctor and a neurologist. They had taken L-Dopa for over a year. The patient informed their doctors that they were no longer taking L-Dopa. They took nothing for their Parkinson's Disease for almost a year before beginning to take asparagusic acid.
The test for relief of the shaking from Parkinson disease was the patient's hand writing skill. Prior to treatment with asparagusic acid the patient could not write their name. […] Normally the ability to write was diminished within 12 hours, but their varied.
The asparagus top third was cut from the stalk and weighed. 50 to 100 grams was used per treatment. The tops were steamed for a short period of time. This was typically done by placing the asparagus tops in a pie plate and covered. No water was added. After a short heating period, for example heating in a microwave for 44 seconds on high, the asparagus is “self” steamed from water in the plant and may substantially help in the formation of asparagusic acid from asparaptine. […] Excess heating will decompose asparagusic acid and will likely form a dihydro byproduct by splitting the disulfide linkage.
A preparation as described above was taken at least two hours after eating. The asparagus was consumed immediately after heating with salt and taken with simple non-caffeine liquids such as water and white wine. No further food was consumed for at least an hour. […] One exception was found. […] It is noted that raw eggs contain many sulfur compounds.

[2] = boiling for 30 minutes; rearranges to 1,2,3-trithiane-5-carboxylic acid and 1,2-dithiacylopentene; cited from earlier work

| SMILES | effect on shaking, lipoic acid ([1]; 250 mg tablet, same manner in regards to food consumption as Example 1) | time until ability to write was diminished ([1]; one Parkinson's patient, after treatment, varied) | relief of the shaking from Parkinson disease (patient's hand writing skill) ([1]; one Parkinson's patient, 50 to 100 grams asparagus tops, steamed a short time (microwave 44 seconds), taken at least two hours after eating, no food for at least an hour) | stability during cooking [2] |
| --- | --- | --- | --- | --- |
| O=C(O)CCCC[C@@H]1CCSS1 (racemic) [lipoic acid, reference compound] | no effect | – | – | – |
| O=C(O)C1CSSC1 [asparagusic acid, 1,2-dithiolane-4-carboxylic acid] | – | ≤ 12 h | could easily write their name in a flowing easy manner | not vary stable |
